Reference: ChEMBL document CHEMBL3039007, “Structure-based identification of OATP1B1/3 inhibitors” (Mol Pharmacol, 2013)
Residues, ends and D or L forms follow the SMILES beside them.

Legend:
[1] = target: T1, Solute carrier organic anion transporter family member 1B3 (Homo sapiens, UniProt Q9NPD5); conditions: chinese hamster, cho, 10 µM
T1 sequence (Q9NPD5 whole entry): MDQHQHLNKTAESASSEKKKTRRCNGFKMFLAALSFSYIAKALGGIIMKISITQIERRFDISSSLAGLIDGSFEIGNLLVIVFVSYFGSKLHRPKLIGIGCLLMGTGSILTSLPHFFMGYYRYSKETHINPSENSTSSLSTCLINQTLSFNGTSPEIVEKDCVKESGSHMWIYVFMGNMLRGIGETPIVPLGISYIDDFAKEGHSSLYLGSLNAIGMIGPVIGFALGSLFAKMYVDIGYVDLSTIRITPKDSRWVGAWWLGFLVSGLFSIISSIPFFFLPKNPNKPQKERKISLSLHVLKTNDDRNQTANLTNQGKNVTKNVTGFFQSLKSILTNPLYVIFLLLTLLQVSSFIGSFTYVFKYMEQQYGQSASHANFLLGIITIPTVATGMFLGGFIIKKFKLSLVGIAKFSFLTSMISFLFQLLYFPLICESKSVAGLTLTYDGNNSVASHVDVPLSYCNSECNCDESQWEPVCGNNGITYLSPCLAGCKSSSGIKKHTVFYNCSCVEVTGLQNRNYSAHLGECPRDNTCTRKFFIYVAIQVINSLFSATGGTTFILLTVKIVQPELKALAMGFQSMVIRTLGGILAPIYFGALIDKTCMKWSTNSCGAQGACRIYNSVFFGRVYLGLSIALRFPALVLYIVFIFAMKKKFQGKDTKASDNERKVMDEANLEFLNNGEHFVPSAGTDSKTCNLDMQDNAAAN

[2] = target: T2, Solute carrier organic anion transporter family member 1B1 (Homo sapiens, UniProt Q9Y6L6); conditions: chinese hamster, cho, 10 µM
T2 sequence (Q9Y6L6 whole entry): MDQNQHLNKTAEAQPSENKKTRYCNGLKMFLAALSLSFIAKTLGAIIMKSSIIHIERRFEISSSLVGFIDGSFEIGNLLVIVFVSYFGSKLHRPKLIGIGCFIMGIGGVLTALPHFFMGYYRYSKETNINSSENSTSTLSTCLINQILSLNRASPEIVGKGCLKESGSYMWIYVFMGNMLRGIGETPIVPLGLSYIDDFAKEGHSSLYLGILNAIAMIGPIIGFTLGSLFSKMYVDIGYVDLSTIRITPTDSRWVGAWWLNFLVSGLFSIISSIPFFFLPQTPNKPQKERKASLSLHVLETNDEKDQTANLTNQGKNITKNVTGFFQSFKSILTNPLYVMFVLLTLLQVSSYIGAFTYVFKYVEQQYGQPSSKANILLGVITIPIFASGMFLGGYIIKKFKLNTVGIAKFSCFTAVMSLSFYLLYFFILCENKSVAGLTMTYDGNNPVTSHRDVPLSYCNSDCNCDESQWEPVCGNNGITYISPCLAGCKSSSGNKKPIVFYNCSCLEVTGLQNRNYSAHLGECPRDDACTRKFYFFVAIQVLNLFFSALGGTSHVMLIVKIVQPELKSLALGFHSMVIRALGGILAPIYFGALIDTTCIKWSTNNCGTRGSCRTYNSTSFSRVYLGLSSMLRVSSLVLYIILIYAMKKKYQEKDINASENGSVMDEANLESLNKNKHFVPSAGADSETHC

Row | Compound | residual activity [1] [%] | residual activity [2] [%]
1 | Oc1cc(O)c2c(c1)O[C@H](c1cc(O)c(O)c(O)c1)[C@H](O)[C@H]2c1c(O)cc(O)c2c1O[C@H](c1cc(O)c(O)c(O)c1)[C@H](O)[C@H]2c1c(O)cc(O)c2c1O[C@H](c1cc(O)c(O)c(O)c1)[C@H](O)C2 [KATACINE] | 99.79 | 133.4
2 | NC(CO)(CO)CO.O=C(c1ccccc1)c1ccc2n1CCC2C(=O)O (configuration not stated) [KETOROLAC TROMETHAMINE] | 87.08 | 196.1
3 | CN1CCC(=C2c3ccccc3CC(=O)c3sccc32)CC1.O=C(O)/C=C/C(=O)O [KETOTIFEN FUMARATE] | 89.36 | 94.79
4 | CCC(=O)OC1[C@@H]2CC3=C4CC(=O)O[C@@H](c5ccoc5)[C@]4(C)CCC3[C@@](C)(C2=O)[C@@H](CC(=O)OC)C1(C)C (some centres not stated) [KHAYASIN C] | 67.18 | 59.29
5 | CCC(C)C(=O)OC1[C@@H]2CC3=C4CC(=O)O[C@@H](c5ccoc5)[C@]4(C)CCC3[C@@](C)(C2=O)[C@@H](CC(=O)OC)C1(C)C (some centres not stated) [KHAYASIN] | 83.34 | 98.52
6 | COc1c2occc2c(OC)c2c(=O)cc(C)oc12 [KHELLIN] | 102.2 | 83.15
7 | CC(=O)O[C@H]1C[C@@H](OC(C)=O)C(C)(C)[C@@H]2C[C@@H](OC(C)=O)[C@]3(C)[C@H](CC[C@@]4(C)[C@H](c5ccoc5)OC(=O)[C@H]5O[C@@]534)[C@@]12C [KHIVORIN] | 94.96 | 77.22
8 | COc1ccc(-c2coc3cc(O)ccc3c2=O)c(OC)c1O [KHRINONE E] | 96.23 | 85.61
9 | OC[C@H]1O[C@@H](n2cnc3c(NCc4ccco4)ncnc32)[C@H](O)[C@@H]1O [KINETIN RIBOSIDE] | 112 | 114.7
10 | c1coc(CNc2ncnc3[nH]cnc23)c1 [KINETIN] | 100.6 | 96.48
11 | CC1(C)C[C@@H]2C(=O)CC[C@H]3O[C@]3(C)CC[C@H]21 [KOBUSONE] | 84.64 | 64.48
12 | O=c1cc(CO)occ1O [KOJIC ACID] | 80.38 | 79.88
13 | COc1ccc(-c2coc3cc(O)ccc3c2=O)c(O)c1O [KOPARIN] | 86.85 | 88.35
14 | COc1c(O)cc2c(-c3ccccc3)cc(=O)oc2c1OC [KUHLMANNIN] | 118.4 | 128.2
15 | NCCC(=O)c1ccccc1N [KYNURAMINE] | 89.22 | 113.9
16 | Nc1ccccc1C(=O)CC(N)C(=O)O (configuration not stated) [KYNURENINE] | 67.15 | 58.07
17 | C[C@H](N)CO [L-ALANINOL] | 104 | 73.39
18 | NC(=O)NCCC[C@H](N)C(=O)O [L-CITRULLINE] | 119.7 | 135.1
19 | N[C@H](CO)Cc1ccccc1 [L-PHENYLALANINOL] | 101.5 | 77.2
20 | CC(CCc1ccccc1)NCC(O)c1ccc(O)c(C(N)=O)c1.Cl (configuration not stated) [LABETALOL HYDROCHLORIDE] | 101.4 | 93.55
21 | OC[C@H]1O[C@@H](O[C@@H]2[C@@H](CO)O[C@](O)(CO)[C@H]2O)[C@H](O)[C@@H](O)[C@H]1O [LACTULOSE] | 104.9 | 90.31
22 | C[C@@H]1CC[C@H]2[C@](C)(CO)[C@@H](O)CC[C@]2(C)[C@@]12CC[C@@](CO)(CCO)O2 [LAGOCHILINE] | 95.67 | 99.12
23 | CC(=O)O[C@H]1C[C@H](O[C@H]2[C@@H](O)C[C@H](O[C@H]3[C@@H](O)C[C@H](O[C@H]4CC[C@@]5(C)[C@H](CC[C@@H]6[C@@H]5C[C@@H](O)[C@]5(C)[C@@H](C7=CC(=O)OC7)CC[C@]65O)C4)O[C@@H]3C)O[C@@H]2C)O[C@H](C)[C@H]1O[C@@H]1O[C@H](CO)[C@@H](O)[C@H](O)[C@H]1O [LANATOSIDE C] | 86.15 | 102.5

Row | Compound | residual activity [1] [%] | residual activity [2] [%]
24 | CC(C)=CCC[C@@H](C)[C@H]1CC[C@@]2(C)C3=C(CC[C@]12C)[C@@]1(C)CC[C@H](O)C(C)(C)[C@@H]1CC3 [LANOSTEROL] | 90.91 | 53.97
25 | Cc1c(OCC(F)(F)F)ccnc1C[S+]([O-])c1nc2ccccc2[nH]1 (configuration not stated) [LANSOPRAZOLE] | 100.5 | 95.47
26 | CC(C)=CCC1=C(O)C(=O)c2ccccc2C1=O [LAPACHOL] | 108.2 | 115.5
27 | COc1ccc(CC2c3cc(OC)c(OC)cc3CCN2C)cc1OC (configuration not stated) [LAUDANOSINE] | 114.7 | 107.4
28 | O=C1C=C(O)C(=O)c2ccccc21 [LAWSONE] | 101.6 | 99.76
29 | Cc1cc(OC(=O)c2c(C)cc(O)cc2O)cc(O)c1C(=O)O [LECANORIC ACID] | 60.79 | 61.21
30 | CC(C)C[C@H](N)C(=O)N[C@@H](C)C(=O)O [LEU-ALA] (H-Leu-Ala-OH) | 96.54 | 93.04
31 | N=c1[nH]c(=O)c2[nH]c(=O)c(=O)[nH]c2[nH]1 [LEUCOPTERIN] | 98.11 | 136.6
32 | Nc1nc(=O)c2c([nH]1)NCC(CNc1ccc(C(=O)N[C@@H](CCC(=O)[O-])C(=O)[O-])cc1)N2C=O.[Ca+2] (some centres not stated) [LEUCOVORIN CALCIUM] | 90.54 | 80.81
33 | CC(C)(C)NC[C@H](O)c1ccc(O)c(CO)c1.Cl [LEVALBUTEROL HYDROCHLORIDE] | 85.66 | 95.04
34 | Cl.c1ccc([C@H]2CN3CCSC3=N2)cc1 [LEVAMISOLE HYDROCHLORIDE] | 102.9 | 121.8
35 | N[C@@H](Cc1ccc(O)c(O)c1)C(=O)O [LEVODOPA] | 90.65 | 86.05
36 | C[C@H]1COc2c(N3CCN(C)CC3)c(F)cc3c(=O)c(C(=O)O)cn1c23.C[C@H]1COc2c(N3CCN(C)CC3)c(F)cc3c(=O)c(C(=O)O)cn1c23.O [LEVOFLOXACIN] | 95.07 | 117.4
37 | CC(C)=CCC[C@](C)(O)[C@@H]1CC=C(C)CC1 [LEVOMENOL] | 97.78 | 83.39
38 | C[C@H](N)[C@H](O)c1ccc(O)c(O)c1 [LEVONORDEFRIN] | 80.26 | 58.62
39 | CC(=O)/C(=C\c1ccccc1)CC(=O)O [LEVULINIC ACID,  3-BENZYLIDENYL-] | 110.1 | 134.7
40 | CCC/C=C1\OC(=O)C2=C1CCC=C2 [LIGUSTILIDE] | 107.5 | 117.7
41 | CC1(C)O[C@H]2CC(=O)OC[C@]23[C@H]2CC[C@@]4(C)[C@H](c5ccoc5)OC(=O)[C@H]5O[C@]54[C@]2(C)C(=O)C[C@@H]13 [LIMONIN] | 92.09 | 102.2
42 | C=C[C@](C)(O)CCC=C(C)C [LINALOOL (+)] | 117.7 | 102.5
43 | CC(C)(C#N)O[C@@H]1O[C@H](CO)[C@@H](O)[C@H](O)[C@H]1O [LINAMARIN] | 97.67 | 131.3
44 | CCC[C@@H]1C[C@@H](C(=O)N[C@@H]([C@H]2O[C@H](SC)[C@H](O)[C@@H](O)[C@H]2O)[C@@H](C)O)N(C)C1.Cl.O [LINCOMYCIN HYDROCHLORIDE] | 97.7 | 83.01
45 | Cl[C@H]1[C@H](Cl)[C@@H](Cl)[C@@H](Cl)[C@H](Cl)[C@H]1Cl [LINDANE] | 90.09 | 79.82
46 | O=C(O)CCCCC1CCSS1 (stereo not drawn) [LIPOIC ACID, ALPHA] | 103.3 | 129.1
